In US20130137772A1, “HYDROXYPOLYAMINE SALTS” (priority 2011, published 2013):
Several values for one entry are separate records, joined by “and”; a condition that tells them apart may be missing. Equal values may be shown once.

Experiments:
[1] = Tissue distribution and metabolism: polyamine content of kidney, liver and pancreas via HPLC; format: in vivo, Female CD-1 mice; details: DEHSPM 18.6 mg/kg/d IP x 5 d
Procedure: The tissue distribution and metabolism of DEHSPM, (HO)2DEHSPM HCl Salt and (HO)2DEHSPM Mesylate Salt in various organs were evaluated utilizing the following protocol:
Tissue Distribution and Metabolism of DEHSPM, (HO)2DEHSPM HCl Salt and (HO)2DEHSPM Mesylate Salt
• 1) DEHSPM, (HO)2DEHSPM HCl salt, and (HO)2DEHSPM mesylate salt were dissolved in sterile normal saline; the pH was not adjusted. • 2) Female CD-1 mice were given the drugs at equimolar dosages intraperitoneally once daily for 5 days. • 3) The animals, n=3-4 per group, were euthanized 4, 8, or 24 h post-last dose. • 4) The kidney, liver, and pancreas were removed and assessed for their polyamine content via HPLC analysis. • 5) The polyamine concentration data (mean±STD) are expressed as nmol/g wet weight of tissue. SPM, spermine; SPD, spermidine; PUT, putrescine; N.D., not determined. • 6) A one-tailed t test assuming unequal variance was performed on the tissue polyamine concentration data. A value of p<0.05 was considered significant.

[2] = mice, three weeks after a seven day schedule; cited from earlier work

Question: For `CCNCCCCNCCCCNCCCCNCC` [DEHSPM, Diethylhomospermine, reference compound], which DEHSPM concentration ([1]; kidney, 4 h post-last dose) is on record?
Answer: Its DEHSPM concentration is 428 ± 95 nmol/g wet weight of tissue.

Question: What about the PUT concentration ([1]; kidney, 4 h post-last dose) of the same compound?
Answer: The PUT concentration was 0 ± 0 nmol/g wet weight of tissue.

Question: What about the SPD concentration ([1]; kidney, 4 h post-last dose) of the same compound?
Answer: Its SPD concentration is 270 ± 61 nmol/g wet weight of tissue.

Question: And the SPM concentration ([1]; kidney, 4 h post-last dose)?
Answer: Its SPM concentration is 243 ± 49 nmol/g wet weight of tissue.

Question: And the DEHSPM concentration ([1]; kidney, 8 h post-last dose)?
Answer: Its DEHSPM concentration is 425 ± 82 nmol/g wet weight of tissue.

Question: And the PUT concentration ([1]; kidney, 8 h post-last dose)?
Answer: Its PUT concentration is 0 ± 0 nmol/g wet weight of tissue.

Question: What about the SPD concentration ([1]; kidney, 8 h post-last dose) of the same compound?
Answer: Its SPD concentration is 159 ± 4 nmol/g wet weight of tissue.

Question: What about the SPM concentration ([1]; kidney, 8 h post-last dose) of the same compound?
Answer: Its SPM concentration is 240 ± 52 nmol/g wet weight of tissue.

Question: What about the DEHSPM concentration ([1]; kidney, 24 h post-last dose) of the same compound?
Answer: Its DEHSPM concentration is 260 ± 19 nmol/g wet weight of tissue.

Question: And the PUT concentration ([1]; kidney, 24 h post-last dose)?
Answer: Its PUT concentration is 0 ± 0 nmol/g wet weight of tissue.

Question: And the SPD concentration ([1]; kidney, 24 h post-last dose)?
Answer: Its SPD concentration is 150 ± 37 nmol/g wet weight of tissue.

Question: And the SPM concentration ([1]; kidney, 24 h post-last dose)?
Answer: Its SPM concentration is 223 ± 61 nmol/g wet weight of tissue.

Question: And the DEHSPM concentration ([1]; liver, 4 h post-last dose)?
Answer: The DEHSPM concentration was 148 ± 46 nmol/g wet weight of tissue.

Question: And the PUT concentration ([1]; liver, 4 h post-last dose)?
Answer: The PUT concentration was 0 ± 0 nmol/g wet weight of tissue.

Question: And the SPD concentration ([1]; liver, 4 h post-last dose)?
Answer: The SPD concentration was 540 ± 77 nmol/g wet weight of tissue.

Question: What about the SPM concentration ([1]; liver, 4 h post-last dose) of the same compound?
Answer: Its SPM concentration is 764 ± 49 nmol/g wet weight of tissue.

Question: What about the DEHSPM concentration ([1]; liver, 8 h post-last dose) of the same compound?
Answer: Its DEHSPM concentration is 144 ± 7 nmol/g wet weight of tissue.

Question: And the PUT concentration ([1]; liver, 8 h post-last dose)?
Answer: The PUT concentration was 0 ± 0 nmol/g wet weight of tissue.

Question: And the SPD concentration ([1]; liver, 8 h post-last dose)?
Answer: Its SPD concentration is 710 nmol/g wet weight of tissue and 710 ± 132 nmol/g wet weight of tissue.

Question: What about the SPM concentration ([1]; liver, 8 h post-last dose) of the same compound?
Answer: The SPM concentration was 899 ± 40 nmol/g wet weight of tissue.

Question: And the DEHSPM concentration ([1]; liver, 24 h post-last dose)?
Answer: Its DEHSPM concentration is 79 ± 10 nmol/g wet weight of tissue.

Question: What about the PUT concentration ([1]; liver, 24 h post-last dose) of the same compound?
Answer: Its PUT concentration is 21 ± 15 nmol/g wet weight of tissue.

Question: What about the SPD concentration ([1]; liver, 24 h post-last dose) of the same compound?
Answer: The SPD concentration was 578 nmol/g wet weight of tissue and 578 ± 150 nmol/g wet weight of tissue.

Question: What about the SPM concentration ([1]; liver, 24 h post-last dose) of the same compound?
Answer: Its SPM concentration is 809 ± 45 nmol/g wet weight of tissue.

Question: And the DEHSPM concentration ([1]; pancreas, 4 h post-last dose)?
Answer: Its DEHSPM concentration is 330 ± 37 nmol/g wet weight of tissue.

Question: What about the PUT concentration ([1]; pancreas, 4 h post-last dose) of the same compound?
Answer: Its PUT concentration is 43 ± 10 nmol/g wet weight of tissue.

Question: What about the SPD concentration ([1]; pancreas, 4 h post-last dose) of the same compound?
Answer: Its SPD concentration is 6054 nmol/g wet weight of tissue and 6054 ± 878 nmol/g wet weight of tissue.

Question: What about the SPM concentration ([1]; pancreas, 4 h post-last dose) of the same compound?
Answer: The SPM concentration was 1000 nmol/g wet weight of tissue and 1000 ± 124 nmol/g wet weight of tissue.

Question: And the DEHSPM concentration ([1]; pancreas, 8 h post-last dose)?
Answer: The DEHSPM concentration was 339 ± 59 nmol/g wet weight of tissue.

Question: What about the PUT concentration ([1]; pancreas, 8 h post-last dose) of the same compound?
Answer: Its PUT concentration is 66 ± 33 nmol/g wet weight of tissue.

Question: What about the SPD concentration ([1]; pancreas, 8 h post-last dose) of the same compound?
Answer: The SPD concentration was 5789 nmol/g wet weight of tissue and 5789 ± 339 nmol/g wet weight of tissue.

Question: And the SPM concentration ([1]; pancreas, 8 h post-last dose)?
Answer: Its SPM concentration is 1033 nmol/g wet weight of tissue and 1033 ± 290 nmol/g wet weight of tissue.

Question: And the DEHSPM concentration ([1]; pancreas, 24 h post-last dose)?
Answer: The DEHSPM concentration was 284 ± 50 nmol/g wet weight of tissue.

Question: What about the PUT concentration ([1]; pancreas, 24 h post-last dose) of the same compound?
Answer: The PUT concentration was 62 ± 29 nmol/g wet weight of tissue.

Question: What about the SPD concentration ([1]; pancreas, 24 h post-last dose) of the same compound?
Answer: The SPD concentration was 5807 nmol/g wet weight of tissue and 5807 ± 262 nmol/g wet weight of tissue.

Question: What about the SPM concentration ([1]; pancreas, 24 h post-last dose) of the same compound?
Answer: Its SPM concentration is 1146 nmol/g wet weight of tissue and 1146 ± 107 nmol/g wet weight of tissue.

Question: And the “drug administered remaining in the liver and kidney as drug or metabolites” value [2]?
Answer: Its value is 35%.

Question: And the “drug remaining in the animal in the form of HSPM” value [2]?
Answer: Its value is 90%.
